The results in this text go back to the supplement of paper PMC10949913.

Common to all, as to settings: 48 h
The test system of experiment [1] is CU-ACC1. In words: area under concentration-response curve (viability) (AUC (a.u.)); higher = less active. The method, boiled down: (§1)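 After 48 h of treatment with 23 nL of each library compound at 11 concentrations, three adrenocortical carcinoma cell lines in 1,536-well plates (500–1,000 cells/well, 5 µL medium) were given CellTiter-Glo for 15 minutes at room temperature. Luminescence was then read and normalised per plate to vehicle and empty-well controls. AC50 and area under the curve were drawn from fitted concentration-response curves of inhibitory or non-responding classes only.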

Experiment [2] concerns CU-ACC2. The experiment is described as above. The essentials: as §1
Experiment [3] concerns NCI-H295R. The description is as above. The essentials:
as §1

The subject of experiment [4] is CU-ACC1. In words: AC50 viability; higher = less potent. The essentials:
as §1

The test system of experiment [5] is CU-ACC2. As to the kind of experiment: AC50 viability; higher = less potent. The method, boiled down: as §1
Experiment [6] concerns NCI-H295R. In words: AC50 viability; higher = less potent. The essentials: as §1

Turning to `CNC(=O)c1cc(COc2nnc(Nc3ccc(Cl)cc3)c3ccoc23)ccn1`, the “area under concentration-response curve” value was 419 in experiment [1], 462 in experiment [2] and 423 in experiment [3]. Further, the AC50 viability in experiment [4] was determined as 1.86 µM; in experiment [5] it was 8.33 µM; in experiment [6] it was 5.25 µM.

`Oc1ccc(-c2ccc(-c3cc(Nc4cccc(CNC5CC5)c4)[nH]n3)cc2)c(O)c1`: the “area under concentration-response curve” value in experiment [1] worked out at 498; in experiment [2] it was 556; in experiment [3] it was 531. The AC50 viability was found to be 14.8 µM in experiment [4], 10.5 µM in experiment [5] and 18.6 µM in experiment [6].

Consider `CC1(C)CC(=O)c2c(C(F)(F)F)nn(-c3ccc(C(N)=O)c(NC4CCC(OC(=O)CN)CC4)c3)c2C1` (configuration not stated), for which the results for the “area under concentration-response curve” value in experiment [1], in experiment [2] and in experiment [3] were 362, 426 and 431, respectively. Further, the results for the AC50 viability in experiment [4], in experiment [5] and in experiment [6] were 1.05 µM, 0.417 µM and 1.05 µM, respectively.

Regarding `C[N]1N=C(C)C2=C1OC(=C(/C#N)C2C3=CC=C(C=C3)C(F)(F)F)/N` (configuration not stated), the “area under concentration-response curve” value in experiment [1] worked out at 460; in experiment [2], 422; in experiment [3], 479. The AC50 viability in experiment [4], in experiment [5] and in experiment [6] was 18.6 µM throughout.

For `O=C1NC(=O)/C(=C/c2ccc3nccc(-c4ccncc4)c3c2)S1`, the “area under concentration-response curve” value in experiment [1] was determined as 412; in experiment [2], 480; in experiment [3], 393. The AC50 viability in experiment [4] was determined as 1.32 µM; in experiment [5], 1.18 µM; in experiment [6] it was 1.32 µM.

In the case of `C=CC(=O)Nc1ccc2ncnc(Nc3cccc(Br)c3)c2c1`, the results for the “area under concentration-response curve” value in experiment [1], in experiment [2] and in experiment [3] were 360, 375 and 409, respectively. Also, the figures for the AC50 viability in experiment [4], in experiment [5] and in experiment [6] were 13.2 µM, 14.8 µM and 0.372 µM, respectively.

As to `CC1(C)CC(=O)c2c(C(F)(F)F)nn(-c3ccc(C(N)=O)c(NC4CCC(O)CC4)c3)c2C1` (configuration not stated), the “area under concentration-response curve” value in experiment [1] was determined as 359; in experiment [2], 416; in experiment [3], 455. For the same compound, the figures for the AC50 viability in experiment [4], in experiment [5] and in experiment [6] were 1.05 µM, 0.295 µM and 0.833 µM, respectively.

On to `Cc1ccc([N+](=O)[O-])cc1[S+](=O)([O-])N(C)/N=C/c1cnc2ccc(Br)cn12`, for which the “area under concentration-response curve” value in experiment [1] worked out at 226; in experiment [2], 332; in experiment [3] it was 346. In addition, the AC50 viability in experiment [4] amounted to 0.417 µM; in experiment [5], 0.166 µM; in experiment [6], 0.417 µM.

Take `CC/1=C(\O)C(=O)\C=C2/C1=C\C=C3/[C@@]2(C)CC[C@@]4(C)[C@@H]5C[C@@](C)(CC[C@]5(C)CC[C@]34C)C(O)=O`: the “area under concentration-response curve” value in experiment [1] was found to be 474; in experiment [2], 515; in experiment [3] it was 447. Further, the results for the AC50 viability in experiment [4], in experiment [5] and in experiment [6] were 13.2 µM, 6.61 µM and 23.5 µM, respectively.

For `COc1ccc(CNC(=O)Nc2ncc([N+](=O)[O-])s2)cc1`, the “area under concentration-response curve” value in experiment [1] is 394; in experiment [2] it was 400; in experiment [3], 410. In addition, the AC50 viability was 29.5 µM in experiment [4], 18.6 µM in experiment [5] and 23.5 µM in experiment [6].

With `Cc1ccc(NC(=O)NCc2ccc3c(c2)CN(C2CCC(=O)NC2=O)C3=O)cc1Cl` (configuration not stated), the “area under concentration-response curve” value stood at 137 in experiment [1], 289 in experiment [2] and 234 in experiment [3]. Also, the results for the AC50 viability in experiment [4], in experiment [5] and in experiment [6] were 0.00372 µM, 0.0332 µM and 0.0166 µM, respectively.

Turning to `CC(C)(O)/C=C\C(=O)[C@](C)(O)[C@H]1[C@H](O)C[C@]2(C)[C@@H]3CC=C4[C@@H](C=C(O)C(=O)C4(C)C)[C@]3(C)C(=O)C[C@@]12C`, the “area under concentration-response curve” value in experiment [1] came to 316; in experiment [2] it was 377; in experiment [3], 406. The AC50 viability in experiment [4] was found to be 0.372 µM; in experiment [5], 0.332 µM; in experiment [6] it was 5.25 µM.

In the case of `CN1CCN(Cc2ccc(NC(=O)Nc3ccc(Oc4cc(NC(=O)C5CC5)ncn4)cc3)cc2C(F)(F)F)CC1`, the “area under concentration-response curve” value in experiment [1] was determined as 426; in experiment [2], 337; in experiment [3] it was 428. Also, the AC50 viability stood at 1.66 µM in experiment [4], 0.468 µM in experiment [5] and 2.63 µM in experiment [6].

Regarding `Fc1ccc(C(OCCN2CCN(CCCc3ccccc3)CC2)c2ccc(F)cc2)cc1`, the results for the “area under concentration-response curve” value in experiment [1], in experiment [2] and in experiment [3] were 471, 490 and 423, respectively. Also, the values for the AC50 viability in experiment [4], in experiment [5] and in experiment [6] were 16.6 µM, 18.6 µM and 14.8 µM, respectively.

For the compound `CNC(=O)c1ccc(Nc2ncc(C(F)(F)F)c(NCc3nccnc3N(C)[S+](C)(=O)[O-])n2)cc1`, the “area under concentration-response curve” value in experiment [1] was found to be 354; in experiment [2], 336; in experiment [3], 353. Besides, the AC50 viability in experiment [4] is 3.32 µM; in experiment [5] it was 1.86 µM; in experiment [6] it was 3.32 µM.

Regarding `CNCCn1c(=O)c2cc(OC)c(OC)cc2c2cnc3cc4c(cc3c21)OCO4`, the “area under concentration-response curve” value in experiment [1] was found to be 422; in experiment [2] it was 537; in experiment [3], 553. In addition, the AC50 viability in experiment [4] worked out at 0.0959 µM; in experiment [5], 0.135 µM; in experiment [6], 0.152 µM.

For the compound `C=C1/C(=C\C=C2/CCC[C@]3(C)[C@@H]([C@H](C)/C=C/[C@H](C)C(C)C)CC[C@@H]23)C[C@@H](O)C[C@@H]1O`, the figures for the “area under concentration-response curve” value in experiment [1], in experiment [2] and in experiment [3] were 381, 400 and 372, respectively. The AC50 viability in experiment [4] stood at 6.61 µM; in experiment [5], 7.42 µM; in experiment [6] it was 7.42 µM.

As for `COc1cc(Nc2c(C#N)cnc3cc(OCCCN4CCN(C)CC4)c(OC)cc23)c(Cl)cc1Cl`, the “area under concentration-response curve” value in experiment [1] was found to be 412; in experiment [2], 451; in experiment [3], 430. Further, the figures for the AC50 viability in experiment [4], in experiment [5] and in experiment [6] were 5.9 µM, 8.33 µM and 7.42 µM, respectively.

As to `CC(C)CNc1ccnc(NCc2csc(-c3ccccc3)n2)n1`, the “area under concentration-response curve” value in experiment [1] turned out to be 445; in experiment [2], 591; in experiment [3] it was 531. The AC50 viability in experiment [4] turned out to be 3.72 µM; in experiment [5], 23.5 µM; in experiment [6] it was 16.6 µM.

For `CC[C@@H]1C(=O)N(C)c2cnc(Nc3ccc(C(=O)NC4CCN(C)CC4)cc3OC)nc2N1C1CCCC1`, the “area under concentration-response curve” value in experiment [1] came to 412; in experiment [2], 461; in experiment [3] it was 404. Also, the AC50 viability in experiment [4] was found to be 20.9 µM; in experiment [5] it was 16.6 µM; in experiment [6], 16.6 µM.

Take `O=C(/C=C\n1cnc(-c2cc(C(F)(F)F)cc(C(F)(F)F)c2)n1)NNc1ccccn1`: the “area under concentration-response curve” value in experiment [1] came out at 273; in experiment [2], 245; in experiment [3], 271. The results for the AC50 viability in experiment [4], in experiment [5] and in experiment [6] were 2.35 µM, 1.32 µM and 10.5 µM, respectively.

Take `CN1CCC(CNc2ccc3ncc(-c4cccc(OC(F)(F)F)c4)n3n2)CC1`: the “area under concentration-response curve” value came to 413 in experiment [1], 460 in experiment [2] and 416 in experiment [3]. Further, the AC50 viability was 7.42 µM in experiment [4], 13.2 µM in experiment [5] and 9.34 µM in experiment [6].
